Laboratory results: patent US20030103863A1, “High pressure sterilising of sensitive active principles” (priority 2000, published 2003)

How the values were obtained:
[1] = HPLC purity after high pressure treatment; format: physicochemical; conditions: powder, high pressure treatment at 5,000 bars
Protocol: Complementary tests were conducted to show the harmlessness of the treatment by high pressure on the fragile elements. In this case, these elements were placed in solution or in the form of powder.
a) The peptide, in this case Gramicidin, is subjected to a high pressure treatment at 5,000 bars, and its purity was also tested by HPLC, the variations remaining less than 1%. The high pressures have no influence on the structure.

[2] = HPLC chromatography of insulin after high pressure treatment; format: physicochemical; conditions: 4,000, 5,000 and 6,000 bars for 10 minutes, ambient temperature and −20° C.; analyzed at 214 nm
Protocol: b) Insulin was selected at 40 UI, commercial form, and diluted to {fraction (1/100 )} at pH 2.5. For the measurement, passage is carried out with a flow rate of 1 ml/min in an HPLC (High Pressure Liquid Chromatography) apparatus.
Different specimens were subjected, at ambient temperature and at a negative temperature of −20° C., to:
atmospheric pressure for the standard,
5,000 bars for 10 minutes, and
The specimens, after treatment, are then analyzed at 214 nm in a chromatographic apparatus with automatic injection.

| Substance | variations of purity by HPLC [1] | modifications or alterations of the structure (HPLC curves vs standard at atmospheric pressure) [2] |
| --- | --- | --- |
| gramicidin | less than 1% |  |
| insulin |  | no noticeable modifications or alterations |
